From patent publication US20220135567A1, “TYK2 PSEUDOKINASE LIGANDS” (Ventyx Biosciences, Inc., priority 2019, published 2022)

System: IFN-a/Jak1Tyk2
Experiment: Co-stimulation assay in lysed whole blood: IFNa (JAK1/TYK2) stimulated STAT1 phosphorylation
Type: cell-based
Settings: lysed human whole blood, IFNa 100 ng/mL + GM-CSF 10 ng/mL, pSTAT1 by flow cytometry
Procedure: Dilute RBC lysis buffer to 1× in distilled water. Add 2 mL blood to 38 mL of 1×RBC-lysis buffer. Incubate for 15 mins at RT, in dark. Spin at 300 g, 5 mins, to collect the pellet. Re-lyse if necessary. Re-suspend pellet in 5 mL of cRPMI.
Aliquot 80 μL of lysed human blood in to wells of 96 deep-well plate. Add 10 μl of (10× conc.) of different concentrations of compounds to all wells except controls (unstained and unstimulated) and mix it with the help of 100 uL multichannel. Add 10 uL of RPMI media in controls. For dilution of compounds and dilution range please refer Appendix. Incubate on water bath or CO2 incubator for 1 hour at 37° C. Add 10 μl of (10× conc.) of cytokine mix (GM-CSF and IFNa) (final conc. 10 ng/mL of GM-CSF and 100 ng/mL of IFNa) to each well except unstimulated and unstained controls and incubate further for 20 minutes on water bath at 37° C.
Add 900 μL of prewarmed 1× Fix/Lyse solution (Appendix) and mix it properly using 1000 μl multichannel, incubate further on water bath at 37° C. for 10 minutes (which includes time of addition). Centrifuge at 800×g for 5 minutes at 40° C.; remove 900 uL of supernatant and add 900 μL of 1×PBS. Centrifuge at 800×g for 5 minutes at 40° C., remove 900 μL of supernatant. Wash one more time with 900 μL of PBS (optional) and resuspend pellets in 100 uL of PBS.
Disrupt the pellet by gentle tapping and resuspend in 1000 μL of BD Phosflow Perm Buffer III and incubate plate on ice for 30 minutes. Centrifuge plate at 800×g for 5 minutes at 40° C. Wash two more times with 1000 μL of BD Pharmingen Stain Buffer.
Disrupt the pellet by gentle tapping. Resuspend pellets in 100 uL of Stain Buffer and add 5 μL of pSTAT5_AF488 Ab and 5 uL of pSTAT1_PE in all wells except unstained control and mix properly using 200 μl multichannel, incubate overnight at […]. Add 900 μL of wash buffer and centrifuge at 1800 rpm for 3 minutes at […]. Wash one more time with 1000 μL of BD Pharmingen Stain Buffer. Finally resuspend the pellet in 300 uL of BD Pharmingen Stain Buffer. Transfer the cells to 96-well v-bottom plate and acquire the cells in Beckman Coulter CytExpert. Acquiring cells in Flow Cytometer: Keep the threshold value to 250 and cell concentration should not exceed 100-500 cells/μL. Acquire at least 5,000-10,000 cells.
Cytokine dilution: 1) GM-CSF Stock at 100 ug/mL. Prepare an intermediate dilution of 1 ug/mL by adding 2 uL of stock into 198 uL of cRPMI. Further dilute to 100 ng/mL by adding 100 uL of the intermediate stock to 900 uL of cRPMI. 2) IFNa Stock at 200 ug/mL. Dilute IFNa stock 1:200 by adding 5 uL of stock into the 1000 uL of 100 ng/mL GM-CSF working stock as above to give a combined working stock of 1000 ng/mL of IFNa and 100 ng/mL GM-CSF (10×). Keep it on ice until used.
Lyse/Fix buffer preparation: Dilute 5× Lyse/Fix buffer to 1× using MQ water and keep at 37° C. until used.
BD Phosflow perm buffer III: Keep on ice/fridge.

| IC50 (20 min) | IC50 (20 minutes) | SMILES |
| --- | --- | --- |
| < 100 nM | – | CNc1cc(Nc2cc(F)cc3c2OCCO3)nc2c(C(=O)NCC(C)(C)CO)cnn12 [Compound 109, 5-((7-fluoro-2,3-dihydrobenzo[b][1,4]dioxin-5-yl)amino)-N-(3-hydroxy-2,2-dimethylpropyl)-7-(methylamino)pyrazolo[1,5-a]pyrimidine-3-carboxamide] |
| < 100 nM | – | [2H]C([2H])([2H])Nc1cc(Nc2cc(F)cc3c2OCCO3)nc2c(C(=O)NCC(C)(C)CO)cnn12 [Compound 98, 5-((7-fluoro-2,3-dihydrobenzo[b][1,4]dioxin-5-yl)amino)-N-(3-hydroxy-2,2-dimethylpropyl)-7-((methyl-d3)amino)pyrazolo[1,5-a]pyrimidine-3-carboxamide] |
| 100 to 1000 nM | – | CNc1cc(Nc2cc(Cl)ccc2OC(F)(F)F)nc2c(C(=O)NC3CC3)cnn12 [Compound 57, 5-((5-chloro-2-(trifluoromethoxy)phenyl)amino)-N-cyclopropyl-7-(methylamino)pyrazolo[1,5-a]pyrimidine-3-carboxamide] |
| > 300 nM | – | CNc1cc(Nc2ccccc2-n2cccn2)nc2c(C(=O)NC3CC3)cnn12 [Compound 34, 5-((2-(1H-pyrazol-1-yl)phenyl)amino)-N-cyclopropyl-7-(methylamino)pyrazolo[1,5-a]pyrimidine-3-carboxamide] |
| 1000 to 10000 nM | – | CNC(=O)c1cnn2c(NC)cc(Nc3cc(F)cc(F)c3OC)nc12 [Compound 71, 5-((3,5-difluoro-2-methoxyphenyl)amino)-N-methyl-7-(methylamino)pyrazolo[1,5-a]pyrimidine-3-carboxamide] |
| 100 to 1000 nM | – | CNc1cc(Nc2cccc(C(=O)OC)c2)nc2c(C(=O)NC3CC3)cnn12 [Compound 29, methyl 3-((3-(cyclopropylcarbamoyl)-7-(methylamino)pyrazolo[1,5-a]pyrimidin-5-yl)amino)benzoate] |
| < 100 nM | – | CNc1cc(Nc2cc(F)cc(F)c2OC)nc2c(C(=O)NC3CC3F)cnn12 (stereo not shown) [Compound 73, 5-((3,5-difluoro-2-methoxyphenyl)amino)-N-(2-fluorocyclopropyl)-7-(methylamino)pyrazolo[1,5-a]pyrimidine-3-carboxamide] |
| 1000 to 10000 nM | – | CNc1cc(Nc2cccn(-c3cccc(C)n3)c2=O)nc2c(C(=O)NC3CC(C#N)C3)cnn12 (stereo not shown) [Compound 99, N-(3-cyanocyclobutyl)-5-((6′-methyl-2-oxo-2H-[1,2′-bipyridin]-3-yl)amino)-7-(methylamino)pyrazolo[1,5-a]pyrimidine-3-carboxamide] |
| 1000 to 10000 nM | – | CNc1cc(Nc2ccc3c(c2)CN(C)CC3)nc2c(C(=O)NC3CC3)cnn12 [Compound 61, N-cyclopropyl-5-((2-methyl-1,2,3,4-tetrahydroisoquinolin-7-yl)amino)-7-(methylamino)pyrazolo[1,5-a]pyrimidine-3-carboxamide] |

Continued, compound first:

| SMILES | IC50 (20 min) | IC50 (20 minutes) |
| --- | --- | --- |
| CNc1cc(Nc2cccn(-c3ccnc(C)n3)c2=O)nc2c(C(=O)NC3CCC3)cnn12 [Compound 110, N-cyclobutyl-7-(methylamino)-5-((1-(2-methylpyrimidin-4-yl)-2-oxo-1,2-dihydropyridin-3-yl)amino)pyrazolo[1,5-a]pyrimidine-3-carboxamide] | < 100 nM | – |
| CNc1cc(Nc2cccc3c2OCCO3)nc2c(C(=O)NC3(C#N)CC3)cnn12 [Compound 95, N-(1-cyanocyclopropyl)-5-((2,3-dihydrobenzo[b][1,4]dioxin-5-yl)amino)-7-(methylamino)pyrazolo[1,5-a]pyrimidine-3-carboxamide] | < 100 nM | – |
| CNc1cc(Nc2csnc2C(=O)O)nc2c(C(=O)NCCOC)cnn12 [Compound 46, 4-((3-((2-methoxyethyl)carbamoyl)-7-(methylamino)pyrazolo[1,5-a]pyrimidin-5-yl)amino)isothiazole-3-carboxylic acid] | > 300 nM | – |
| CNc1cc(Nc2cccn(C)c2=O)nc2c(C(=O)NC3CC(F)(F)C3)cnn12 [Compound 91, N-(3,3-difluorocyclobutyl)-5-((1-methyl-2-oxo-1,2-dihydropyridin-3-yl)amino)-7-(methylamino)pyrazolo[1,5-a]pyrimidine-3-carboxamide] | 1000 to 10000 nM | – |
| CNc1cc(Nc2cc(F)cc(F)c2OC)nc2c(C(N)=O)cnn12 [Compound 74, 5-((3,5-difluoro-2-methoxyphenyl)amino)-7-(methylamino)pyrazolo[1,5-a]pyrimidine-3-carboxamide] | > 300 nM | – |
| CNc1cc(Nc2cc(F)cc(F)c2OC)nc2c(C(=O)NC3CC3)cnn12 [Compound 19] | – | < 100 nM |
| CNc1cc(Nc2cccn(-c3cccc(C)n3)c2=O)nc2c(C(=O)N[C@H]3C[C@H]3F)cnn12 [Compound 111, N-((1S,2R)-2-fluorocyclopropyl)-5-((6′-methyl-2-oxo-2H-[1,2′-bipyridin]-3-yl)amino)-7-(methylamino)pyrazolo[1,5-a]pyrimidine-3-carboxamide] | < 100 nM | – |
| CNc1cc(Nc2ccnn2C)nc2c(C(=O)NC3CC3)cnn12 [Compound 53, N-cyclopropyl-5-((1-methyl-1H-pyrazol-5-yl)amino)-7-(methylamino)pyrazolo[1,5-a]pyrimidine-3-carboxamide] | 100 to 1000 nM | – |
| [2H]C([2H])([2H])Nc1cc(Nc2cc(F)cc3c2OCCO3)nc2c(C(=O)N[C@H]3C[C@H]3F)cnn12 [Compound 79, 5-((7-fluoro-2,3-dihydrobenzo[b][1,4]dioxin-5-yl)amino)-N-((1S,2R)-2-fluorocyclopropyl)-7-((methyl-d3)amino)pyrazolo[1,5-a]pyrimidine-3-carboxamide] | < 100 nM | – |
| CNc1cc(Nc2cc(F)cc(F)c2OC)nc2c(C(=O)NCC(C)(O)CO)cnn12 (stereo not shown) [Compound 26, 5-((3,5-difluoro-2-methoxyphenyl)amino)-N-(2,3-dihydroxy-2-methylpropyl)-7-(methylamino)pyrazolo[1,5-a]pyrimidine-3-carboxamide] | < 100 nM | – |
| CNc1cc(Nc2csnc2C(=O)OC)nc2c(C(=O)NC3CC3)cnn12 [Compound 39, methyl 4-((3-(cyclopropylcarbamoyl)-7-(methylamino)pyrazolo[1,5-a]pyrimidin-5-yl)amino)isothiazole-3-carboxylate] | > 300 nM | – |
| CCOc1ccc(-n2cccc(Nc3cc(NC)n4ncc(C(=O)NC5CCC5)c4n3)c2=O)nn1 [Compound 108, N-cyclobutyl-5-((1-(6-ethoxypyridazin-3-yl)-2-oxo-1,2-dihydropyridin-3-yl)amino)-7-(methylamino)pyrazolo[1,5-a]pyrimidine-3-carboxamide] | < 100 nM | – |
| CNc1cc(Nc2cccn(C)c2=O)nc2c(C(=O)N[C@H]3C[C@H]3F)cnn12 [Compound 107, N-((1S,2R)-2-fluorocyclopropyl)-5-((1-methyl-2-oxo-1,2-dihydropyridin-3-yl)amino)-7-(methylamino)pyrazolo[1,5-a]pyrimidine-3-carboxamide] | < 100 nM | – |
| CNc1cc(Nc2cccn(-c3ccccn3)c2=O)nc2c(C(=O)NC3CCC3)cnn12 [Compound 114, N-cyclobutyl-7-(methylamino)-5-((2-oxo-2H-[1,2′-bipyridin]-3-yl)amino)pyrazolo[1,5-a]pyrimidine-3-carboxamide] | < 100 nM | – |
| CCOC(=O)c1cscc1Nc1cc(NC)n2ncc(C(=O)NC3CC3)c2n1 [Compound 37, ethyl 4-((3-(cyclopropylcarbamoyl)-7-(methylamino)pyrazolo[1,5-a]pyrimidin-5-yl)amino)thiophene-3-carboxylate] | > 300 nM | – |
| CNc1cc(Nc2ccnn2CC(F)(F)F)nc2c(C(=O)NC3CC3)cnn12 [Compound 70, N-cyclopropyl-7-(methylamino)-5-((1-(2,2,2-trifluoroethyl)-1H-pyrazol-5-yl)amino)pyrazolo[1,5-a]pyrimidine-3-carboxamide] | 100 to 1000 nM | – |
